According to US10501452B2, “Lactam compound derivative and application thereof” (NHWA PHARMA. CORPORATION, priority 2015, dated 2019):
Like-named read-outs stand apart in the source and are kept apart here.

Tests used:
5-HT2A = 5-HT2A (Rattus norvegicus (Rat), UniProt P14842); test: 5-HT2A receptor binding assay ([3H]-Ketanserin)
Protocol: Rats were decapitated. Cortex of brain was rapidly taken on ice, and 3 ml of buffer (0.05 M Tris-HCl buffer: 6.05 g of Tris was dissolved in 1000 ml of double-distilled water, and concentrated HCl was used to adjust to pH 7.5) was added, homogenization was conducted, and then 5 ml of buffer was added. Incubation was conducted at 37° C. for 10 min, the weight of the tubes were adjusted using a balance after incubation. Centrifugation was conducted at 12000 rpm, 4° C. for 20 min, the supernatant was discarded, and 3 ml of buffer was added. Vortex mixer was used for blending, and then 5 ml of buffer was added. Centrifugation was conducted (repeated 3 times). After the centrifugation, the supernatant was discarded, and the pellets were stored at −80° C. for future use.
(1) The prepared membrane was applied with buffer, and homogenizer was used for evenly dispersing. 15 tubes were mixed into a 100 ml container, and appropriate amount of buffer was added to give 50 ml of membrane suspension, which was reserved for future use.
(§2) (2) 100 μL of membrane preparation and 100 μL of buffer were added into each reaction tube.
(3) 100 μL of buffer was added into the total binding tube (TB), 100 μL of Methysergide (final concentration 10^−5M) was added into the nonspecific binding tube (NB), 100 μL of the test compound (final concentration 10^−5M) was added into the specific binding tube (SB) of each test compound.
(5) Each of the reaction tubes was incubated at 37° C. for 15 min. After the reaction was completed, the bound ligands were rapidly filtered under reduced pressure, and sufficiently washed with ice-chilled assay buffer. The filter was taken out and put into a 3 ml scintillation vial, and 2 ml of toluene scintillation cocktail was added and blended.
(6) The scintillation vial were put into Liquid Scintillation Counter for counting. Inhibition rate(I%)=(Total binding tube cpm−compound cpm)/(Total binding tube cpm−nonspecific binding tube cpm)×100%

D2 = D2 (Rattus norvegicus (Rat), UniProt P61169); test: D2 receptor binding assay (3H-Spiperone)
Protocol: Rats were decapitated. Striatum of brain was rapidly taken on ice, 3 ml of buffer (0.05 M Tris-HCl buffer, containing NaCl 120 mM, KCl 5 mM, MgCl2 1 mM, CaCl2 1 mM) was added, homogenization was conducted, and then 5 ml of buffer was then added. The weight of the homogenized tubes were adjusted using a balance, and centrifugation was conducted. The supernatant was discarded, and 3 ml of buffer was added. Vortex mixer was used for blending, and then 5 ml of buffer was added. Centrifugation was conducted and repeated 3 times. The supernatant was discarded after centrifugation was completed, and the pellets were stored at −80° C. for future use.
Beckman LS-6500 Multi-function Liquid Scintillation Counter was used.
(1) The prepared membrane was applied with appropriate amount of buffer, and homogenizer was used for evenly dispersing. 15 tubes were mixed into a 100 ml container, and appropriate amount of buffer was added to give 50 ml of membrane suspension, which was reserved for future use.
as §2
(3) 100 μL of buffer was added into the total binding tube (TB), 100 μL of Butaclamol (final concentration 10^−5M) was added into the nonspecific binding tube (NB), 100 μL of the test compound (final concentration 10^−5M) was added into the specific binding tube (SB) of each test compound.
(5) Each of the reaction tubes was incubated at 37° C. for 20 min. After the reaction was completed, the bound ligands were rapidly filtered under reduced pressure, and sufficiently washed with ice-chilled assay buffer. The filter was taken out and put into a 3 ml scintillation vial, and 2 ml of toluene scintillation cocktail was added and blended.
(6) The scintillation vials were put into Liquid Scintillation Counter for counting. Inhibition rate(I%)=(Total binding tube cpm−compound cpm)/(Total binding tube cpm−nonspecific binding tube cpm)×100%
Each assay for the compounds was conducted in duplicate for two individual tests.

5-HT1A = 5-HT1A (Rattus norvegicus (Rat), UniProt P19327); test: 5-HT1A receptor binding assay (3H-8-OH-DPAT); conditions: rat cortex membrane, 3H-8-OH-DPAT
Sequence of 5-HT1A (P19327 whole entry): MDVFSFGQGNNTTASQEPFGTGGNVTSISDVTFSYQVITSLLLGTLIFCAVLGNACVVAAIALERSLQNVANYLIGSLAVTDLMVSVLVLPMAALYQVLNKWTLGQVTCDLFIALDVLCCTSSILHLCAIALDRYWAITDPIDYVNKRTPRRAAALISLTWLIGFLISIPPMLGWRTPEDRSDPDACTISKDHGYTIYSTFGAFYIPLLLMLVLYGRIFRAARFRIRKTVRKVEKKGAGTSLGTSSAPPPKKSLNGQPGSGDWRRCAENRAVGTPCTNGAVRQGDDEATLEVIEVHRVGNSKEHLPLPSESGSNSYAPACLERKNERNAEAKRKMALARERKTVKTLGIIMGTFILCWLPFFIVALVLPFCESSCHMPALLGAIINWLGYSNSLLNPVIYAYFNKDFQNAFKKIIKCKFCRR
Protocol: Rats were decapitated. […] Incubation at 37° C. was conducted for 10 min. […] Centrifugation was conducted and repeated 3 times.
(§1) Materials for the Receptor Binding Assay

5-HT7 receptor = 5-HT7 receptor (Rattus norvegicus (Rat), UniProt P32305); test: 5-HT7 receptor binding assay ([3H]-5-CT); conditions: rat hypothalamus membrane, [3H]-5-CT
Sequence of 5-HT7 receptor (P32305 whole entry): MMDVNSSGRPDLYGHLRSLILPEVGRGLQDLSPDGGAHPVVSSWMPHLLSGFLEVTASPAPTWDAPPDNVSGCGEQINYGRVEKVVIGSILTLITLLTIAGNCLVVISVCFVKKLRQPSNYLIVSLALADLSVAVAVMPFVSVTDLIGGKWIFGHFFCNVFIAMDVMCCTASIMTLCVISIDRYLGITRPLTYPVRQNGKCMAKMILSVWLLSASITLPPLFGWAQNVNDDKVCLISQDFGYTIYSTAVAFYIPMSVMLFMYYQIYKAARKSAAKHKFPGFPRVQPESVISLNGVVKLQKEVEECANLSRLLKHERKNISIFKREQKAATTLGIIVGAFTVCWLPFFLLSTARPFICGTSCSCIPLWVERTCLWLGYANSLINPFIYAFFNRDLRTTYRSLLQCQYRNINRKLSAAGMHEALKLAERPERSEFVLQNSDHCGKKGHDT
Protocol: Adult SD rats were decapitated. […] Centrifugation was conducted (repeated 3 times).
as §1

Histamine H1 receptor = Histamine H1 receptor (Cavia porcellus (Guinea pig), UniProt P31389); test: Histamine H1 receptor binding assay (3H-pyrilamine); conditions: guinea pig cerebellum membrane, 3H-pyrilamine
Sequence of Histamine H1 receptor (P31389 whole entry): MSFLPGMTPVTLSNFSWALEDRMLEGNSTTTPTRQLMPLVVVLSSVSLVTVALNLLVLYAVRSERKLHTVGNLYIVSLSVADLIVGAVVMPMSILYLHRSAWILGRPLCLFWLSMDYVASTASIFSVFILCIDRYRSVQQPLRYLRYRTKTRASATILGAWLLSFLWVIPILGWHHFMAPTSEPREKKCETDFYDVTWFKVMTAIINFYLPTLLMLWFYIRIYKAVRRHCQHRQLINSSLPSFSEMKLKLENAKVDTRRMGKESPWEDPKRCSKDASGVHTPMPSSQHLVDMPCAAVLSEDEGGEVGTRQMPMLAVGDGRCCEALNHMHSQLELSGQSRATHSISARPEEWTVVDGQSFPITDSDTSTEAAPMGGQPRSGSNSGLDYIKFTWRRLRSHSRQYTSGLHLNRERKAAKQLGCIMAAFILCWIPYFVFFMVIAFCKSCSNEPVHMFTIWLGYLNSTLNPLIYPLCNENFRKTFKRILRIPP
Protocol: Preparation of Histamine H1 Receptor Membrane
Guinea pigs were decapitated. […] Vortex mixer was used for blending. Centrifugation was conducted at 48000 g, 4° C. for 10 min. The supernatant was discarded to give pellets, and buffer was added again for washing. Centrifugation was conducted and repeated 3 times.
as §1
(2) 100 μL of membrane preparation was added into each reaction tube.

[1] = read-out: Ki (nM) 5-HT2A, rat cortex membrane, [3H]-Ketanserin
[2] = read-out: Ki (nM) D2, rat striatum membrane, 3H-Spiperone

Sequence of 5-HT2A (P14842 whole entry): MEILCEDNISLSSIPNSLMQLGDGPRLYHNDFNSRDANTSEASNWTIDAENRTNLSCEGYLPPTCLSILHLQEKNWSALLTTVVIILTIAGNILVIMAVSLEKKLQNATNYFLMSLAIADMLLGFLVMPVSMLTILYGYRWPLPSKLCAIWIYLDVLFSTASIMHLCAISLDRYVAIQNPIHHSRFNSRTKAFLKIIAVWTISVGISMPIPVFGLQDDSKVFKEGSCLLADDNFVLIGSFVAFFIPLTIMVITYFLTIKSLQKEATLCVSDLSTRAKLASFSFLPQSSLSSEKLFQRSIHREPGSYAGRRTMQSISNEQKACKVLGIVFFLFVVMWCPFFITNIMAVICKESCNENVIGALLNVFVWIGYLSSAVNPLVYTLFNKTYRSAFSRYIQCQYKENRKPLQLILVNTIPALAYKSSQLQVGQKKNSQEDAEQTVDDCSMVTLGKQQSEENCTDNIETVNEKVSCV
Sequence of D2 (P61169 whole entry): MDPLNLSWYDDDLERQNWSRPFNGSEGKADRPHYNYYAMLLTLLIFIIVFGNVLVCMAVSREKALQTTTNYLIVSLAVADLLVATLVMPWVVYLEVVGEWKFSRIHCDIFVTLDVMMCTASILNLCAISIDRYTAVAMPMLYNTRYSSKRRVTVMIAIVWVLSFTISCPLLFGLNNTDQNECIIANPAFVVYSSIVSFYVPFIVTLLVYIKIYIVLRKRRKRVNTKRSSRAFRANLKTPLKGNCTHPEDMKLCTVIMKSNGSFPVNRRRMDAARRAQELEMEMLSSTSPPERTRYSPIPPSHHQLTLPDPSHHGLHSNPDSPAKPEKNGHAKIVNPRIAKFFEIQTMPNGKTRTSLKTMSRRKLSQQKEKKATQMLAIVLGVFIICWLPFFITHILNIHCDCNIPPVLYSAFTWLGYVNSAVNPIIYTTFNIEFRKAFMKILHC

In the case of `CN1CCc2ccc(OCCCN3CCN(c4ccccc4Cl)CC3)cc2C1=O` [Compound 18, 7-(3-(4-(2-chlorophenyl)piperazin-1-yl)propoxy)-2-methyl-3,4-dihydroisoquinolin-1(2H)-one], the Ki (5-HT2A; [1]) is reported as greater than 2000 nM, the Ki (D2; [2]) is reported as greater than 2000 nM and the Ki (5-HT1A) is reported as greater than 2000 nM.

`O=C1NCCc2ccc(OCCCN3CCN(c4cccc(Cl)c4Cl)CC3)cc21` [A, reference compound] showed a Ki (5-HT2A; [1]) of 29.2 nM, a Ki (D2; [2]) of 21.2 nM and a Ki (5-HT1A) of 14.3 nM. For the same compound, the Ki (5-HT7 receptor) was 254 nM and the Ki (Histamine H1 receptor) was 89.6 nM.

`CN1CCc2c(F)cc(OCCCN3CCC(c4noc5cc(F)ccc45)CC3)cc2C1=O` [Compound 9, 5-fluoro-7-(3-(4-(6-fluorobenzo[d]isoxazol-3-yl)piperidin-1-yl)propoxy)-2-methyl-3,4-dihydroisoquinolin-1(2H)-one] showed a Ki (5-HT2A; [1]) of 3.7 nM, a Ki (D2; [2]) of 3.1 nM and a Ki (5-HT1A) of 3.9 nM. The Ki (5-HT7 receptor) was 7.9 nM and the Ki (Histamine H1 receptor) was greater than 2000 nM.

For `Cn1cnc2ccc(OCCCCN3CCN(c4ccc(F)cc4)CC3)cc2c1=O` [Compound 29, 6-(4-(4-(4-fluorophenyl)piperazin-1-yl)butoxy)-3-methylquinazolin-4(3H)-one], the Ki (5-HT2A; [1]) was 347 nM, the Ki (D2; [2]) was greater than 2000 nM and the Ki (5-HT1A) was 259 nM.

`CN1CCc2ccc(OCCCCN3CCC(c4noc5cc(F)ccc45)CC3)cc2C1=O` [Compound 1, 7-(4-(4-(6-fluorobenzo[d]isoxazol-3-yl)piperidin-1-yl)butoxy)-2-methyl-3,4-dihydroisoquinolin-1(2H)-one] showed a Ki (5-HT2A; [1]) of 18.9 nM, a Ki (D2; [2]) of 12.5 nM and a Ki (5-HT1A) of 15.8 nM. The Ki (5-HT7 receptor) was 12.5 nM.

For `COc1ccc(N2CCN(CCCOc3ccc4c(c3)C(=O)N(C)CC4)CC2)cc1` [Compound 21, 7-(3-(4-(4-methoxyphenyl)piperazin-1-yl)propoxy)-2-methyl-3,4-dihydroisoquinolin-1(2H)-one], the Ki (5-HT2A; [1]) was greater than 2000 nM, the Ki (D2; [2]) was greater than 2000 nM and the Ki (5-HT1A) was greater than 2000 nM.

Work on `Cn1cnc2ccc(OCCCCN3CCN(c4cccc(C(F)(F)F)c4)CC3)cc2c1=O` [Compound 28, 3-methyl-6-(4-(4-(3-(trifluoromethyl)phenyl)piperazin-1-yl)butoxy)quinazolin-4(3H)-one] yielded a Ki (5-HT2A; [1]) of 5.8 nM, a Ki (D2; [2]) of 24.8 nM and a Ki (5-HT1A) of 12.2 nM. For the same compound, the Ki (5-HT7 receptor) was 7.4 nM and the Ki (Histamine H1 receptor) was greater than 2000 nM.

`Cn1cnc2ccc(OCCCCN3CCN(Cc4ccccc4)CC3)cc2c1=O` [Compound 26, 6-(4-(4-benzylpiperazin-1-yl)butoxy)-3-methylquinazolin-4(3H)-one] showed a Ki (5-HT2A; [1]) greater than 2000 nM, a Ki (D2; [2]) greater than 2000 nM and a Ki (5-HT1A) of 56.9 nM.

In the case of `CN1CCc2ccc(OCCCN3CCN(c4ccc5c(c4)OCO5)CC3)cc2C1=O` [Compound 13, 7-(3-(4-(benzo[d][1,3]dioxol-5-yl)piperazin-1-yl)propoxy)-2-methyl-3,4-dihydroisoquinolin-1 (2H)-one], the Ki (5-HT2A; [1]) is reported as 3.6 nM, the Ki (D2; [2]) is reported as 235 nM and the Ki (5-HT1A) is reported as 12.8 nM.

`O=C1CCc2ccc(OCCCCN3CCC(c4noc5cc(F)ccc45)CC3)cc2N1` [E, reference compound] was tested, and the Ki (5-HT2A) was 12.7 nM, the Ki (D2) was 5.6 nM and the Ki (5-HT1A) was 23.2 nM. It also gave a Ki (5-HT7 receptor) of 35.6 nM and a Ki (Histamine H1 receptor) of 178 nM.

`Cn1cnc2ccc(OCCCCN3CCN(c4ccccn4)CC3)cc2c1=O` [Compound 30, 3-methyl-6-(4-(4-(pyridin-2-yl)piperazin-1-yl)butoxy)quinazolin-4(3H)-one] showed a Ki (5-HT2A) greater than 2000 nM, a Ki (D2) greater than 2000 nM and a Ki (5-HT1A) greater than 2000 nM.

Work on `Cn1cnc2ccc(OCCCCN3CCc4ccccc4C3)cc2c1=O` [Compound 27, 6-(4-(3,4-dihydroisoquinolin-2(1H)-yl)butoxy)-3-methylquinazolin-4(3H)-one] yielded a Ki (5-HT2A; [1]) of 66.2 nM, a Ki (D2; [2]) of 500 nM and a Ki (5-HT1A) of 57.9 nM.

In the case of `CN1CCc2ccc(OCCCN3CCN(c4ccc(F)cc4)CC3)cc2C1=O` [Compound 19, 7-(3-(4-(4-fluorophenyl)piperazin-1-yl)propoxy)-2-methyl-3,4-dihydroisoquinolin-1(2H)-one], the Ki (5-HT2A; [1]) is reported as 688 nM, the Ki (D2; [2]) is reported as 1650 nM and the Ki (5-HT1A) is reported as 746 nM.

For `CC1CN(C)C(=O)c2cc(OCCCN3CCC(c4noc5cc(F)ccc45)CC3)ccc21` (centres unmarked) [Compound 10, 7-(3-(4-(6-fluorobenzo[d]isoxazol-3-yl)piperidin-1-yl)propoxy)-2,4-dimethyl-3,4-dihydroisoquinolin-1(2H)-one], the Ki (5-HT2A; [1]) was 12.9 nM, the Ki (D2; [2]) was 5.8 nM and the Ki (5-HT1A) was 4.6 nM. The Ki (5-HT7 receptor) was 8.4 nM and the Ki (Histamine H1 receptor) was greater than 2000 nM.

For `Cc1cc(OCCCN2CCC(c3noc4cc(F)ccc34)CC2)cc2c1CCN(C)C2=O` [Compound 8, 7-(3-(4-(6-fluorobenzo[d]isoxazol-3-yl)piperidin-1-yl)propoxy)-2,5-dimethyl-3,4-dihydroisoquinolin-1(2H)-one], the Ki (5-HT2A; [1]) was 2.4 nM, the Ki (D2; [2]) was 8.7 nM and the Ki (5-HT1A) was 2.8 nM. The Ki (5-HT7 receptor) was 6.7 nM and the Ki (Histamine H1 receptor) was greater than 2000 nM.

For `CN1COc2ccc(OCCCN3CCC(c4noc5cc(F)ccc45)CC3)cc2C1=O` [Compound 11, 6-(3-(4-(6-fluorobenzo[d]isoxazol-3-yl)piperidin-1-yl)propoxy)-3-methyl-2H-benzo[e][1,3]oxazin-4(3H)-one], the Ki (5-HT2A; [1]) was 3.6 nM, the Ki (D2; [2]) was 13.9 nM and the Ki (5-HT1A) was 24.6 nM. It also gave a Ki (5-HT7 receptor) of 11.2 nM and a Ki (Histamine H1 receptor) greater than 2000 nM.

Work on `CN1CCc2ccc(OCCCN3CCN(c4cccc5sccc45)CC3)cc2C1=O` [B, reference compound] yielded a Ki (5-HT7 receptor) of 579 nM and a Ki (Histamine H1 receptor) of 139 nM.

In the case of `CN1CCc2ccc(OCCCN3CCN(c4ccc(Cl)cc4)CC3)cc2C1=O` [Compound 17, 7-(3-(4-(4-chlorophenyl)piperazin-1-yl)propoxy)-2-methyl-3,4-dihydroisoquinolin-1(2H)-one], the Ki (5-HT2A; [1]) is reported as greater than 2000 nM, the Ki (D2; [2]) is reported as greater than 2000 nM and the Ki (5-HT1A) is reported as greater than 2000 nM.

With `CN1CCc2ccc(OCCCN3CCC(C(=O)c4ccc(F)cc4)CC3)cc2C1=O` [Compound 25, 7-(3-(4-(4-fluorobenzoyl)piperidin-1-yl)propoxy)-2-methyl-3,4-dihydroisoquinolin-1(2H)-one] the Ki (5-HT2A; [1]) was 21.7 nM, the Ki (D2; [2]) was 32.8 nM and the Ki (5-HT1A) was 17.6 nM. For the same compound, the Ki (5-HT7 receptor) was 10.8 nM and the Ki (Histamine H1 receptor) was greater than 2000 nM.

Compound `O=C1NCCc2ccc(OCCCN3CCC(c4noc5cc(F)ccc45)CC3)cc21` [Compound 12, 7-(3-(4-(6-fluorobenzo[d]isoxazol-3-yl)piperidin-1-yl)propoxy)-3,4-dihydroisoquinolin-1(2H)-one] has a Ki (5-HT2A; [1]) of 5.5 nM, a Ki (D2; [2]) of 10.4 nM and a Ki (5-HT1A) of 19.3 nM. For the same compound, the Ki (5-HT7 receptor) was 8.9 nM and the Ki (Histamine H1 receptor) was greater than 2000 nM.

In the case of `CN1CCc2ccc(OCC(O)CN3CCC(c4noc5cc(F)ccc45)CC3)cc2C1=O` (centres unmarked) [Compound 4, 7-(3-(4-(6-fluorobenzo[d]isoxazol-3-yl)piperidin-1-yl)-2-hydroxypropoxy)-2-methyl-3,4-dihydroisoquinolin-1(2H)-one], the Ki (5-HT2A; [1]) is reported as 15.9 nM, the Ki (D2; [2]) is reported as 15.1 nM and the Ki (5-HT1A) is reported as 3.9 nM. The Ki (5-HT7 receptor) was 10.2 nM and the Ki (Histamine H1 receptor) was greater than 2000 nM.

With `CN1CCc2ccc(OCCCCN3CCN(c4cccc(C(F)(F)F)c4)CC3)cc2C1=O` [Compound 3, 2-methyl-7-(4-(4-(3-(trifluoromethyl)phenyl)piperazin-1-yl)butoxy)-3,4-dihydroisoquinolin-1 (2H)-one] the Ki (5-HT2A; [1]) was 9.9 nM, the Ki (D2; [2]) was 17.2 nM and the Ki (5-HT1A) was 11.8 nM. It also gave a Ki (5-HT7 receptor) of 23.6 nM.

For `Cn1c(=O)c2cc(OCCCN3CCN(c4cccc5sccc45)CC3)ccc2n(C)c1=O` [D, reference compound], the Ki (D2; [2]) was 25.5 nM, the Ki (5-HT7 receptor) was 606 nM and the Ki (Histamine H1 receptor) was 154 nM.

In the case of `Cc1nc2ccc(OCCCN3CCN(c4cccc(C(F)(F)F)c4)CC3)cc2c(=O)n1C` [Compound 31, 2,3-dimethyl-6-(3-(4-(3-(trifluoromethyl)phenyl)piperazin-1-yl)propoxy)quinazolin-4(3H)-one], the Ki (5-HT2A; [1]) is reported as 9.8 nM, the Ki (D2; [2]) is reported as 21.8 nM and the Ki (5-HT1A) is reported as 19 nM. The Ki (5-HT7 receptor) was 8.3 nM and the Ki (Histamine H1 receptor) was greater than 2000 nM.

`CN1CCc2ccc(OCCCN3CCN(c4cccc5ccccc45)CC3)cc2C1=O` [Compound 6, 2-methyl-7-(3-(4-(naphthalen-1-yl)piperazin-1-yl)propoxy)-3,4-dihydroisoquinolin-1(2H)-one] showed a Ki (5-HT2A; [1]) of 57 nM, a Ki (D2; [2]) of 134 nM and a Ki (5-HT1A) of 46.6 nM.

For `CN1CCc2ccc(OCCCN3CCN(c4ccccn4)CC3)cc2C1=O` [Compound 23, 2-methyl-7-(3-(4-(pyridin-2-yl)piperazin-1-yl)propoxy)-3,4-dihydroisoquinolin-1(2H)-one], the Ki (5-HT2A; [1]) was 369 nM, the Ki (D2; [2]) was greater than 2000 nM and the Ki (5-HT1A) was greater than 2000 nM.

Work on `CN1CCc2ccc(OCCCN3CCN(c4ccccc4)CC3)cc2C1=O` [Compound 16, 2-methyl-7-(3-(4-phenylpiperazin-1-yl)propoxy)-3,4-dihydroisoquinolin-1(2H)-one] yielded a Ki (5-HT2A; [1]) of 372 nM, a Ki (D2; [2]) greater than 2000 nM and a Ki (5-HT1A) of 569 nM.

Work on `COc1ccccc1N1CCN(CCCCOc2ccc3c(c2)C(=O)N(C)CC3)CC1` [Compound 2, 7-(4-(4-(2-methoxyphenyl)piperazin-1-yl)butoxy)-2-methyl-3,4-dihydroisoquinolin-1(2H)-one] yielded a Ki (5-HT2A; [1]) of 36.8 nM, a Ki (D2; [2]) of 120 nM and a Ki (5-HT1A) of 11.3 nM.

In the case of `O=C1NCCc2ccc(OCCCN3CCN(c4ccc5sccc5c4)CC3)cc21` [C, reference compound], the Ki (D2) is reported as 35.2 nM, the Ki (5-HT7 receptor) is reported as 500 nM and the Ki (Histamine H1 receptor) is reported as 138 nM.

For `CN1CCc2ccc(OCCCN3CCN(c4ccc5ccccc5n4)CC3)cc2C1=O` [Compound 15, 7-(3-(4-(quinolin-2-yl)piperazin-1-yl)propoxy)-2-methyl-3,4-dihydroisoquinolin-1(2H)-one], the Ki (5-HT2A; [1]) was 468 nM, the Ki (D2; [2]) was 1990 nM and the Ki (5-HT1A) was 157 nM.
